# Patent publication US10899738B2 (THE REGENTS OF THE UNIVERSITY OF MICHIGAN, priority 2016, dated 2021)
# Target: menin protein (Homo sapiens (Human), UniProt O00255)
# Experiment: biochemical
# Assay type: binding
# Conditions: FP competitive binding; menin protein 4 nM, FAM-MM2 probe 2 nM
# Method in brief: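 Test compounds displaced FAM-MM2 (2 nM) from 4 nM menin after 30 min equilibration at room temperature in PBS buffer containing bovine γ-globulin, 4% DMSO and Triton X-100. Binding was followed by fluorescence polarization. Competition curves were fitted by nonlinear regression to give IC50 and Ki.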
# menin protein, sequence (O00255 whole entry): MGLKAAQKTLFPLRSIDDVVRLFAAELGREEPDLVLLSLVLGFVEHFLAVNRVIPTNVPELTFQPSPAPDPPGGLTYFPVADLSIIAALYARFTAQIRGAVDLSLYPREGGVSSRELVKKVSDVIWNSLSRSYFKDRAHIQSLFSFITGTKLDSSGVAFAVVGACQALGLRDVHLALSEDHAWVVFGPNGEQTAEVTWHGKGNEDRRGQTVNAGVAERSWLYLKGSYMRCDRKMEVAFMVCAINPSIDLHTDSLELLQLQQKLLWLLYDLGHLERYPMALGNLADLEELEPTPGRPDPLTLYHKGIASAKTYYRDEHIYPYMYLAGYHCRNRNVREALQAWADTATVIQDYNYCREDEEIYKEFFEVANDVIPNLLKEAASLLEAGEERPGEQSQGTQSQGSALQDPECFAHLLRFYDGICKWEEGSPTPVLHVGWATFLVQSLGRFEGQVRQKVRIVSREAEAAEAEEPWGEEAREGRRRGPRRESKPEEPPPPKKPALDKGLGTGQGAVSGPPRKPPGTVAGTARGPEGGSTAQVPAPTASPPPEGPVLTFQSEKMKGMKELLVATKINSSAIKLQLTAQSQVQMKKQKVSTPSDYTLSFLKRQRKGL
row,Menin Binding Affinity IC50 (μM),Structure (SMILES)
1,No inhibition,N#Cc1ccc(OCCCN2CC(C3(C4CCCC4)c4ccccc4CCN3CCCOc3ccc(C#N)cc3)C2)cc1 (centres unmarked) [compound 61]

# Same assay, conditions: FP competitive binding; menin protein 4 nM, FAM-MM2 probe 2 nM; read-out: Menin Binding Affinity IC50
row,Structure (SMILES),IC50 [nM]
1,"CCc1cc(S(=O)(=O)c2ccc(N3CC(CN4CCC(C5(C6CCCC6)CN(CC)Cc6ccccc65)CC4)C3)cc2)ccn1 (centres unmarked) [compound 155, 4-cyclopentyl-2-ethyl-4-(1-((1-(4-((2-ethylpyridin-4-yl)sulfonyl)phenyl)azetidin-3-yl)methyl)piperidin-4-yl)-1,2,3,4-tetrahydroisoquinoline]",16
2,"Cn1cccc1S(=O)(=O)c1ccc(N2CC(CN3CCC(C4(C5CCCC5)NCCc5ccccc54)CC3)C2)cc1 (centres unmarked) [compound 98, 1-cyclopentyl-1-(1-((1-(4-((1-methyl-1H-pyrrol-2-yl)sulfonyl)phenyl)azetidin-3-yl)methyl)piperidin-4-yl)-1,2,3,4-tetrahydroisoquinoline]",21
3,"CCC(CC)C1(C2CCN(CCCOc3ccc(C#N)cc3)CC2)NCCc2ccccc21 (centres unmarked) [compound 249, 4-(3-(4-(1-(pentan-3-yl)-1,2,3,4-tetrahydroisoquinolin-1-yl)piperidin-1-yl)propoxy)benzonitrile]",1900
4,"C=C(C)CC1(C2CCN(CCCOc3ccc(C#N)cc3)CC2)NCCc2ccccc21 (centres unmarked) [compound 173, 4-(3-(4-(1-(2-methylallyl)-1,2,3,4-tetrahydroisoquinolin-1-yl)piperidin-1-yl)propoxy)benzonitrile]",3000
5,"CC(COc1ccc(C#N)cc1)CN1CCC(C(C#N)(c2ccccc2)C2CCCC2)CC1 (centres unmarked) [compound 127, 4-(3-(4-(cyano(cyclopentyl)(phenyl)methyl)piperidin-1-yl)-2-methylpropoxy)benzonitrile]",294000
6,"N#Cc1ccc(OCCCN2CCC(C3(C4CCCC4)NCCc4sccc43)CC2)cc1 (centres unmarked) [compound 32, 4-(3-(4-(4-cyclopentyl-4,5,6,7-tetrahydrothieno[3,2-c]pyridin-4-yl)piperidin-1-yl)propoxy)benzonitrile]",59
7,"N#Cc1ccc(OCCCN2CCC(C3(C4CCCC4)C(=O)NCc4ccccc43)CC2)cc1 (centres unmarked) [compound 24, 4-(3-(4-(4-cyclopentyl-3-oxo-1,2,3,4-tetrahydroisoquinolin-4-yl)piperidin-1-yl)propoxy)benzonitrile]",416
8,"CC(=O)N1CCCCC1C1(C2CCN(CCCOc3ccc(C#N)cc3)CC2)CN(C)Cc2ccccc21 (centres unmarked) [compound 297, 4-(3-(4-(4-(1-acetylpiperidin-2-yl)-2-methyl-1,2,3,4-tetrahydroisoquinolin-4-yl)piperidin-1-yl)propoxy)benzonitrile]",2100
9,"C[C@@H]1CC(C(C#N)(c2ccccc2)C2CCCC2)C[C@H](C)N1CCCOc1ccc(C#N)cc1 (stereo partly drawn) [compound 121, 4-(3-((2S,6R)-4-(cyano(cyclopentyl)(phenyl)methyl)-2,6-dimethylpiperidin-1-yl)propoxy)benzonitrile]",13100
10,"N#Cc1ccc(OCCCN2CCC(C3NCCc4ccccc43)CC2)cc1 (centres unmarked) [compound 305, 4-(3-(4-(1,2,3,4-tetrahydroisoquinolin-1-yl)piperidin-1-yl)propoxy)benzonitrile]",42100
11,"c1ccc(OCCCN2CCC(C3(C4CCCC4)NCCc4ccccc43)CC2)cc1 (centres unmarked) [compound 76, 1-cyclopentyl-1-(1-(3-phenoxypropyl)piperidin-4-yl)-1,2,3,4-tetrahydroisoquinoline]",1300
12,"N#Cc1ccc(OCCCN2CCC(C3(C4CCC4)NCCc4ccccc43)CC2)cc1 (centres unmarked) [compound 247, 4-(3-(4-(1-cyclobutyl-1,2,3,4-tetrahydroisoquinolin-1-yl)piperidin-1-yl)propoxy)benzonitrile]",1100
13,"CCCC(=O)N1CCCCC1C1(C2CCN(CCCOc3ccc(C#N)cc3)CC2)CN(C)Cc2ccccc21 (centres unmarked) [compound 302, 4-(3-(4-(4-(1-butyrylpiperidin-2-yl)-2-methyl-1,2,3,4-tetrahydroisoquinolin-4-yl)piperidin-1-yl)propoxy)benzonitrile]",6500

# The remaining lines, values ahead:
row,IC50 [nM],Structure (SMILES)
1,131,"CC(=O)O[C@@H]1CCC[C@H]1C1(C2CCN(CCCOc3ccc(C#N)cc3)CC2)CN(C)Cc2ccc(F)cc21 (mixture of isomers) [compound 315, rac-(1R,2S)-2-(4-(1-(3-(4-cyanophenoxy)propyl)piperidin-4-yl)-6-fluoro-2-methyl-1,2,3,4-tetrahydroisoquinolin-4-yl)cyclopentyl acetate]"
2,1610,"CC(=O)O[C@H]1CCC[C@@H]1C(C#N)(c1cccc(C(F)(F)F)c1)C1CCN(CC2CN(c3ccc(C#N)cc3)C2)CC1 (mixture of isomers) [compound 417, rac-(1S,2R)-2-(cyano(1-((1-(4-cyanophenyl)azetidin-3-yl)methyl)piperidin-4-yl)(3-(trifluoromethyl)phenyl)methyl)cyclopentyl acetate]"
3,37600,"CN([C@H]1CCC[C@@H]1C(C#N)(c1ccccc1)C1CCN(CC2CN(c3ccc(S(=O)(=O)C4CC4)cc3)C2)CC1)S(C)(=O)=O (mixture of isomers) [compound 273, rac-N-((1S,2R)-2-(cyano(1-((1-(4-(cyclopropylsulfonyl)phenyl)azetidin-3-yl)methyl)piperidin-4-yl)(phenyl)methyl)cyclopentyl)-N-methylmethanesulfonamide]"
4,1800,"CO[C@H]1CCC[C@@H]1C1(C2CCN(CCCOc3ccc(C#N)cc3)CC2)CN(C)Cc2ccccc21 (mixture of isomers) [compound 325, rac-4-(3-(4-(4-((1R,2S)-2-methoxycyclopentyl)-2-methyl-1,2,3,4-tetrahydroisoquinolin-4-yl)piperidin-1-yl)propoxy)benzonitrile]"
5,46,"CNC(=O)O[C@@H]1CCC[C@H]1C(Cn1ccnc1)(c1ccccc1)C1CCN(CC2CN(c3ccc(S(=O)(=O)c4cnn(C)c4)cc3)C2)CC1 (mixture of isomers) [compound 239, rac-(1R,2S)-2-(2-(1H-imidazol-1-yl)-1-(1-((1-(4-((1-methyl-1H-pyrazol-4-yl)sulfonyl)phenyl)azetidin-3-yl)methyl)piperidin-4-yl)-1-phenethyl)cyclopentyl methylcarbamate]"
6,293,"CC(=O)O[C@H]1CCC[C@@H]1C(C#N)(c1cccc(F)c1)C1CCN(CC2CN(c3ccc(CC(F)(F)F)cc3)C2)CC1 (mixture of isomers) [compound 419, rac-(1S,2R)-2-(cyano(3-fluorophenyl)(1-((1-(4-(2,2,2-trifluoroethyl)phenyl)azetidin-3-yl)methyl)piperidin-4-yl)methyl)cyclopentyl acetate]"
7,68,CNC(=O)O[C@@H]1CCC[C@H]1C(C#N)(c1ccccc1)C1CCN(CC2CN(c3ccc(S(=O)(=O)c4ccn(C)n4)cc3)C2)CC1 (mixture of isomers) [compound 231]
8,1000,"CCC(=O)O[C@@H]1CCC[C@H]1C(C#N)(c1ccccc1)C1CCN(CC2CN(c3ccc(S(=O)(=O)c4ccncc4)cc3)C2)CC1 (mixture of isomers) [compound 196, rac-(1R,2S)-2-(cyano(phenyl)(1-((1-(4-(pyridin-4-ylsulfonyl)phenyl)azetidin-3-yl)methyl)piperidin-4-yl)methylcyclopentyl propionate]"
9,122,"CC(=O)O[C@@H]1CCC[C@H]1C1(C2CCN(CC3CN(c4ccc(S(=O)(=O)C5CC5)cc4)C3)CC2)CN(C)Cc2ccccc21 (mixture of isomers) [compound 204, rac-(1R,2S)-2-(4-(1-((1-(4-(cyclopropylsulfonyl)phenyl)azetidin-3-yl)methyl)piperidin-4-yl)-2-methyl-1,2,3,4-tetrahydroisoquinolin-4-yl)cyclopentyl acetate]"
10,3600,"CO[C@@H]1CCC[C@@H]1C(C#N)(c1ccccc1)C1CCN(CCCOc2ccc(C#N)cc2)CC1 (mixture of isomers) [compound 177, rac-4-(3-(4-(cyano((1R,2R)-2-methoxycyclopentyl)(phenyl)methyl)piperidin-1-yl)propoxy)benzonitrile]"
11,108,"CNC(=O)N[C@@H]1CCC[C@H]1C(CN)(c1ccccc1)C1CCN(CC2CN(c3ccc(S(=O)(=O)c4ccccc4)cc3)C2)CC1 (mixture of isomers) [compound 322, rac-1-((1R,2S)-2-(2-amino-1-phenyl-1-(1-((1-(4-(phenylsulfonyl)phenyl)azetidin-3-yl)methyl)piperidin-4-yl)ethyl)cyclopentyl)-3-methylurea]"
12,4900,"COC[C@H]1CCC[C@@H]1C(C#N)(c1ccccc1)C1CCN(CC2CN(c3ccc(S(=O)(=O)C4CC4)cc3)C2)CC1 (mixture of isomers) [compound 265, rac-2-(1-((1-(4-(cyclopropylsulfonyl)phenyl)azetidin-3-yl)methyl)piperidin-4-yl)-2-((1S,2S)-2-(methoxymethyl)cyclopentyl)-2-phenylacetonitrile]"
13,18,"N#CC(c1ccccc1)(C1CCN(CC2CN(c3ccc(S(=O)(=O)c4ccncc4)cc3)C2)CC1)[C@H]1CCC[C@@H]1OC(=O)C1CC1 (mixture of isomers) [compound 197, rac-(1S,2R)-2-(cyano(phenyl)(1-((1-(4-(pyridin-4-ylsulfonyl)phenyl)azetidin-3-yl)methyl)piperidin-4-yl)methyl)cyclopentyl cyclopropanecarboxylate]"
14,14400,"CS(=O)(=O)CO[C@H]1CCC[C@@H]1C(C#N)(c1ccccc1)C1CCN(CC2CN(c3ccc(S(=O)(=O)c4ccncc4)cc3)C2)CC1 (mixture of isomers) [compound 253, rac-2-((1R,2S)-2-((methylsulfonyl)methoxy)cyclopentyl)-2-phenyl-2-(1-((1-(4-(pyridin-4-ylsulfonyl)phenyl)azetidin-3-yl)methyl)piperidin-4-yl)acetonitrile]"
15,1400,"CNC(=O)O[C@@H]1CCC[C@H]1C(CN1CCCC1)(c1ccccc1)C1CCN(CC2CN(c3ccc(S(=O)(=O)c4ccccc4)cc3)C2)CC1 (mixture of isomers) [compound 360, rac-(1R,2S)-2-(1-phenyl-1-(1-((1-(4-(phenylsulfonyl)phenyl)azetidin-3-yl)methyl)piperidin-4-yl)-2-(pyrrolidin-1-yl)ethyl)cyclopentyl methylcarbamate]"
